Columns and labels:
Test in all cases: fluorescence light-up, plate reader
Settings in all cases: 100 mM K+ (KCl); 20 mM Tris-HCl, pH 7.8; 5 µM dye, 5 µM oligonucleotide; not an affinity constant
[1] = system: TBA31 (DNA, G4) CACTGGTAGGTTGGTGTGGTTGGGGCCAGTG
[2] = system: TBA15 (DNA, G4) GGTTGGTGTGGTTGG
[3] = system: TBA25 (DNA, G4) TGGTAGGTTGGTGTGGTTGGGGCCA
[4] = system: ON31 (RNA, G4) CACUGGUAGGUUGGUGUGGUUGGGGCCAGUG
[5] = system: ON15 (RNA, G4) GGUUGGUGUGGUUGG
[6] = system: Tel23a (DNA, G4) AGGGTTAGGGTTAGGGTTAGGGT
[7] = system: TBA63 (DNA, G4) ATAAAATAAAAAATTACACTGGTAGGTTGGTGTGGTTGGGGCCAGTGTAATTTTTTATTTTAT
[8] = system: ON1+2 (ON1-ON2 duplex) (DNA, duplex) ATAAAATAAAAAATTACACTGG/CCAGTGTAATTTTTTATTTTAT

SMILES | Fluorescence Intensity Enhancement [1] | Fluorescence Intensity Enhancement [2] | Fluorescence Intensity Enhancement [3] | Fluorescence Intensity Enhancement [4] | Fluorescence Intensity Enhancement [5] | Fluorescence Intensity Enhancement [6] | other results
CC(=O)C1=N/C(=C\c2c[nH]c3ccccc23)C(=O)N1C | 20.5 ± 0.22 fold | 2.9 ± 0.11 fold | 31.7 ± 0.40 fold | 19.0 ± 0.25 fold | 7.1 ± 0.09 fold | 7.1 ± 0.16 fold | 
CN1/C(=C/c2cc[n+](C)cc2)Sc2ccccc21 |  |  |  |  |  |  | binding [4]: yes; binding [5]: yes
CN1C(=O)/C(=C/c2ccc(O)cc2)N=C1/C=C/c1ccc(Br)cc1 | 7.4 ± 0.08 fold | 2.0 ± 0.08 fold |  |  |  |  | 
CN1C(=O)/C(=C/c2ccc(O)cc2)N=C1/C=C/c1ccc(C(F)(F)F)cc1 |  |  |  | 2.5 ± 0.03 fold |  |  | 
CN1C(=O)/C(=C/c2ccc(O)cc2)N=C1/C=C/c1ccc(N(C)C)cc1 | 12.3 ± 0.13 fold |  | 20.6 ± 0.29 fold |  |  |  | 
CN1C(=O)/C(=C/c2ccc(O)cc2)N=C1/C=C/c1ccccc1F |  |  | 23.0 ± 0.25 fold |  |  |  | 
CN1C(=O)/C(=C/c2ccc(O)cc2)N=C1C(=O)c1ccccc1 |  |  | 8.7 ± 0.17 fold |  | 6.1 ± 0.10 fold |  | 
CN1C(=O)/C(=C/c2ccccc2)N=C1Nc1ccccc1 |  |  |  | 11.0 ± 0.13 fold | 4.7 ± 0.11 fold |  | 
COc1cc(/C=C2N=C(/C=C/c3ccncc3)N(C)C\2=O)cc(OC)c1O | 16.5 ± 0.18 fold | 3.3 ± 0.13 fold |  | 6.8 ± 0.13 fold |  | 6.2 ± 0.12 fold | 
Cc1ccc(/C(O)=C/C2=NC(=C\c3ccc(O)cc3)/C(=O)N2C)cc1 | 18.8 ± 0.28 fold | 2.1 ± 0.12 fold | 19.1 ± 0.21 fold |  |  | 12.4 ± 0.19 fold | Fluorescence Intensity Enhancement [7]: 12.1 ± 0.15 fold; Fluorescence Intensity Enhancement [8]: 4.0 ± 0.09 fold
